Test results reported in patent US7094801B2, “Chalcone derivatives and their use to treat diseases” (Atherogenics, Inc., priority 2001, dated 2006).
Marks after values point to notes of the source that are not given here.

Assays:
[1] = test system: VCAM-1; experiment: In Vitro VCAM-1 Assay (TNF-α stimulated HAEC or HPAEC, cell ELISA); format: cell-based, human; conditions: Homo sapiens, 16 h, TNF-α (1 ng/ml) stimulated HAEC or HPAEC, approximately 16 hours
Summary of the method: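 Primary human aortic or pulmonary endothelial cells (below passage 9) stimulated with TNF-α (1 ng/ml) plus compound (four concentrations, ≤0.25% DMSO) for about 16 h. Surface VCAM-1 detected by cell ELISA (HRP/TMB, OD 450 nm). IC50 taken as the concentration giving 50% inhibition of the TNF-α-only response.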

[2] = test system: Balb/C mice; experiment: Asthma Protocol (ovalbumin sensitized and challenged mice, bronchoaveolar lavage); format: in vivo, mouse; conditions: sc, daily dosing at 100 mg/kg from day 0–13, lavage fluid
Experimental: Balb/C mice (6–8 weeks old) are sensitized to ovalbumin (ova) (8 ug ova absorbed in 3.3 mg Alum inject) on days 0 and 5. On day 12, the mice were aerosol challenged with 0.5% ovalbumin dissolved in sterile saline for 1 hr in the AM, and then again in the PM (at least 4 hr apart). On day 14, the mice were anesthetized with ketamine/xylazine/acepromazine cocktail, exsanguinated, and then euthanized. Following blood collection, bronchoaveolar lavage was performed on each animal. Total cell counts were conducted on the lavage fluid, which was subsequently diluted with cell media 1:1. Slides of the lavage fluid were made by spinning the samples with a cytospin centrifuge. Slides were airdried and stained with x. Cell differentials of the lavage fluid were completed at the conclusion of the study. All compounds except Example 2 were well tolerated with no body weight loss throughout the course of the study. Statistical analysis involved ANOVA and Tukey-Kramer post hoc tests. Compounds were administered except where noted by subcutaneous injection once daily from day 0–13. The formulations used contained various mixtures of the following excipients (pharmasolve, cremophor RH 40, tween 80, PEG 300). See Biological Table 3

[3] = test system: Male Lewis rats; experiment: Rheumatoid Arthritis Protocol (rat adjuvant arthritis, paw swelling); format: in vivo; conditions: sq, bid
Experimental: (§1) Male Lewis rats (150–175 g) from Charles River Laboratories were anesthetized on day 0 with 3–5% isoflurane anesthesia while the tail base was shaved and adjuvant mixture was injected. Fifty μL of adjuvant (10 mg/ml M. butyricum in mineral oil) was injected subcutaneously into two sites at the tail base. Paw swelling was monitored using a plethysmometer (UGO Basile), after shaving each leg to the level of the Achilles tendon to mark the level of immersion. A baseline paw measurement for both hindpaws was taken between d2-d5 and a second measurement was taken on day 7–8. Onset of paw swelling occurred rapidly between d9–11 and daily measurements were performed every weekday between d9 and day 15. Compounds of the invention and vehicles were dosed either prophylactically (d1–14), or therapeutically (d9–14) after swelling was confirmed. Solutions were injected subcutaneously or given orally by gavage 1–2 times per day. From day 0, rats were weighed every 2–3 days and overall health was monitored. Plasma drug levels, if desired, were measured in tail-vein derived blood samples taken on day 14. On day 15, blood samples were obtained by cardiac puncture, rats were euthanized with CO2, selected organs removed and both hindpaws were amputated and placed in 10% buffered formalin for histopathological analysis. See Biological Table 2.

[4] = test system: IFN-gamma mRNA; experiment: IFN-gamma mRNA in mouse lungs, ovalbumin sensitization and challenge (real-time PCR); format: in vivo; conditions: 100 mg/kg/d, compared with vehicle treated mice
Experimental: (§2) Lung tissues were collected from ovalbumin (Calbiochem) or vehicle (2% Cremophor/Bicarbonate) sensitized Balb/c mice (Charles River) with or without treatment of test compound (100 mg/kg/d, from day 0 to day 14). Total RNA samples were isolated by the Trizol method (Life Technologies, Grand Island, N.Y.) and quantitatively measured by UV spectrophotometer, as well as qualitatively examined by ethidum bromide stained gel electrophoresis. First strand cDNA templates were generated with oligo (dT) by Reverse Transcription Kit (Invitrogen, Carlsbad, Calif.). The initial amounts of mRNA of each samples were quantitatively determined by running a SYBR Green (Qiagen, Valencia, Calif.) based real-time PCR (programmed as: initial denaturation at 95° C. for 15 minutes, denaturation at 95° C. for 15 seconds, annealing and elongation at 51±1° C. for 1 minute for total 40 cycles) with a specific pair of primers (IDT Corporation, Coralville, Iowa) and control primers for GAPDH in iCycler IQ Optical System (Hercules, Calif.). The data were statistically analyzed by ANOVA and t-tests with multiple comparisons of means (n=5 and P<0.05 were considered significant).

[5] = test system: IL-4 mRNA; experiment: IL-4 mRNA in mouse lungs, ovalbumin sensitization and challenge (real-time PCR); format: in vivo; conditions: 100 mg/kg/d, compared with vehicle treated mice
Experimental: as §2

[6] = test system: rat adjuvant arthritis model; experiment: DMARD activity in rat adjuvant arthritis (bone erosion, splenomegaly); format: in vivo
Experimental: as §1, with “2. […]” for “2.”

[7] = test system: IL-5 mRNA; experiment: IL-5 mRNA in mouse lungs, ovalbumin sensitization and challenge (real-time PCR); format: in vivo; conditions: 100 mg/kg/d, compared with vehicle treated mice
Experimental: as §2

[8] = test system: Human Aortic Smooth Mucle Cells (HAoSMC); experiment: Smooth Muscle Cell Proliferation Protocol (3H-thymidine incorporation); format: cell-based; conditions: HAoSMC stimulated by 5% serum
Experimental: Human Aortic Smooth Mucle Cells (HAoSMC) were obtained from Clonetics, Inc. and were used below passage 10. Cells were seeded in 24-well plates. When cells were 80% confluent, they were made quiescent by adding media containing 0.2% serum (as compared to 5% serum in normal culture media) for 48 hours. The cells were, then, stimulated by 5% serum in the presence or absence of compounds dissolved in DMSO. […] Rapamycin (at 1 and 0.1 μM) was used as a positive control for the assay. After a 20 hour incubation with or without test compounds, 3H-thymidine (0.5 μCi/well) was added to the cells for 4 hours of labeling. Washed cells were then lysed in NaOH and the amount of 3H-thymidine incorporation was determined. Cytotoxicity of the drug was measured by use of the CytolTox 96 assay kit (Promega, Madison, Wis.).

[9] = test system: IL-2 mRNA; experiment: IL-2 mRNA in mouse lungs, ovalbumin sensitization and challenge (real-time PCR); format: in vivo; conditions: 100 mg/kg/d, compared with vehicle treated mice
Experimental: as §2

[10] = test system: TNF-α; experiment: Plasma TNF-α levels in LPS-challenged mice; format: in vivo, mouse; conditions: subcutaneously 100 mg/kg/d, 2 hr prior to LPS injection (1 mg/kg), compared with vehicle controls
Experimental: (§3) Balb/C mice (6–8 weeks) were injected with LPS (1 mg/kg; 5 mls/kg) and sacrificed 2 hr later. Blood was collected for plasma TNF-α levels and lungs for measurement of VCAM-1 mRNA levels by quantitative RT-PCR. Compound 3 administered subcutaneously at a dose of 100 mg/kg/d, 2 hr prior to LPS injection, inhibited TNF-α production by 80% and VCAM-1 expression by 60% compared with vehicle controls.

[11] = test system: MCP-1; experiment: In Vitro MCP-1 Activity Assay; format: cell-based; conditions: Endothelial cell; human endothelial cells, TNF-α (1 ng/ml), approximately 16 hours; read-out: IC50 (amount of compound required to achieve a 50% reduction compared to control), MCP-1
Experimental: Cultured human endothelial cells were seeded in 96-well plates. On the following day cells were stimulated with TNF-α (1 ng/ml) in the presence or absence of compounds dissolved in DMSO. To establish a dose curve and an IC50, multiple concentrations in 2- to 5-fold increments were used. Cells were exposed to TNF-α and compounds for approximately 16 hours. The next day the cells were visually examined via light microscopy to score for visual signs of toxicity. Cell culture media, diluted 1:10, was analyzed by an MCP-1 immunoassay kit (R & D Systems). This assay is a sandwich immunoassay using immobilized anti-MCP-1 antibody in 96-well plate to capture secreted MCP-1 in cell culture media. Captured MCP-1 was subsequently detected with a horse radish peroxidase-conjugated anti-MCP-1 antibody for color development. Compound 3 expressed an IC50 values of >10(the amount of compound (μM) required to achieve a 50% reduction compared to control (cells stimulated with TNF-α only)).

[12] = test system: VCAM-1 mRNA; experiment: Lung VCAM-1 mRNA levels in LPS-challenged mice (quantitative RT-PCR); format: in vivo, mouse; conditions: subcutaneously 100 mg/kg/d, 2 hr prior to LPS injection (1 mg/kg), compared with vehicle controls
Experimental: as §3

[13] = test system: IL-13 mRNA; experiment: IL-13 mRNA in mouse lungs, ovalbumin sensitization and challenge (real-time PCR); format: in vivo; conditions: 100 mg/kg/d, compared with vehicle treated mice
Experimental: as §2

[14] = test system: IgE; experiment: Serum IgE levels in ovalbumin sensitized Balb/c mice; format: in vivo, mouse; conditions: 100 mg/kg/d from day 0 to day 14, compared with vehicle treated mice
Experimental: Peripheral blood samples were collected from ovalbumin (Calbiochem) or vehicle (2% Cremophor/Bicarbonate) treated Balb/c mice (Charles River) with or without administration of test compound (100 mg/kg/d, from day 0 to day 14). Serum was obtained by centrifugation and transferred into Microtainer serum tubes and frozen at −80° C. Mouse IgE ELISA Quantitation Kit (Bethyl Laboratories, Inc. Montgomery, Tex. or PharMingen, San Diego, Calif.) was applied to measure the IgE levels of serum samples. Immuno-reactions were performed as Kit protocol with IgE standard and serum samples in duplicates. The results were read in a microplate reader (Bio-Rad Model 550) at 450 nm and the amounts of IgE were calculated according to the standard curve. The limit of detection in our experiments was 7 ng/ml. Compound 3 administrated at 100 mg/kg/d from day 0 to day 14, reduced serum IgE levels by 38% in ovalbumin sensitized Balb/c mice compared with vehicle treated mice.

[15] = test system: IL-1β; experiment: LPS-stimulated IL-1β secretion in human peripheral blood mononuclear cells; format: cell-based; conditions: PBMC; for Percent IL-1β Secreted: LPS (1–2 μg/ml) 3 hours
Experimental: Human peripheral blood mononuclear cells were treated with or without Compound 3 for 1 hour, then stimulated with LPS (1–2 μg/ml) for 3 hours. Condition media was collected and IL-1β measured using an ELISA kit. […] See Biological Table 4

**Q.** Which IC50 [1] does the source give for COCCOCCOc1cc(OC)c(-c2cccs2)cc1/C=C/C(=O)c1ccc(C(=O)O)cc1 [Example 29, 4-(3E-{4-Methoxy-2-[2-(2-methoxyethoxy)ethoxy]-5-thiophen-2-yl-phenyl}-acryloyl)-benzoic Acid] here?
**A.** < 1000 nM

**Q.** And the “% Inhibition” value [2]?
**A.** 24%

**Q.** And the “% Inhibition” value ([3]; 60 mg/Kg/day, d1–14)?
**A.** 82%

**Q.** With COc1cc(OC)c(-c2cc3ccccc3s2)cc1/C=C/C(=O)c1ccc(C(=O)O)cc1 [Example 3, 4-[3E-(5-Benzo[b]thien-2-yl-2,4-dimethoxyphenyl)-acryloyl]-benzoic acid] as the compound, how does the “% Inhibition” value [2] read?
**A.** 79%

**Q.** And the “% Inhibition” value ([3]; 60 mg/Kg/day, d1–14)?
**A.** 96%

**Q.** With COc1cc(OC)c(-c2cc3ccccc3s2)cc1/C=C/C(=O)c1ccc(C(=O)O)cc1 [Compound 3] as the compound, how does the “effect on IFN-gamma mRNA in the lung” value [4] read?
**A.** without significantly affecting

**Q.** And the “inhibition of ovalbumin induced IL-4 mRNA in the lung” value [5]?
**A.** 68%

**Q.** What about the splenomegaly ([6]; prophylactically, 100, 50 and 25 mg/kg/d, b.i.d., s.c.) of the same compound?
**A.** inhibit splenomegaly

**Q.** And the “bone erosion in the ankle joint by histopathological analysis” value ([6]; twice daily subcutaneous doses of 60, 40 and 20 mg/kg/d, prophylactically)?
**A.** inhibit bone erosion

**Q.** And the “inhibition of ovalbumin induced IL-5 mRNA in the lung” value [7]?
**A.** 98%

**Q.** And the IC50 [8]?
**A.** 500 nM

**Q.** What about the “effect on IL-2 mRNA in the lung” value [9] of the same compound?
**A.** without significantly affecting

**Q.** And the “inhibition of TNF-α production (plasma)” value [10]?
**A.** 80%

**Q.** What about the IC50 [11] of the same compound?
**A.** > 10000 nM

**Q.** And the “inhibition of VCAM-1 expression (lung mRNA)” value [12]?
**A.** 60%

**Q.** And the “inhibition of ovalbumin induced IL-13 mRNA in the lung” value [13]?
**A.** 82%

**Q.** What about the “reduction of serum IgE levels” value [14] of the same compound?
**A.** 38%

**Q.** And the “Percent IL-1β Secreted” value ([15]; 1.25 μM)?
**A.** >40%

**Q.** What about the “Percent IL-1β Secreted” value ([15]; 2.5 μM) of the same compound?
**A.** >10%

**Q.** And the “Percent IL-1β Secreted” value ([15]; 5 μM)?
**A.** >5%

**Q.** What about the “Percent IL-1β Secreted” value ([15]; 10 μM) of the same compound?
**A.** >1%

**Q.** And the “inhibition of LPS-stimulated IL-1β secretion” value ([15]; 1 hour pretreatment, LPS 3 hours)?
**A.** dose dependent inhibition

**Q.** With COc1cc(OC)c(-c2cccs2)cc1/C=C/C(=O)c1ccc(C(=O)O)cc1 [Example 6, 4-[3E-(2,4-Dimethoxy-5-thiophen-2-yl-phenyl)-acryloyl]-benzoic acid] as the compound, how does the IC50 [1] read?
**A.** < 1000 nM

**Q.** And the “% Inhibition” value [2]?
**A.** 81%

**Q.** What about the “% Inhibition” value ([3]; 60 mg/Kg/day, d1–14) of the same compound?
**A.** 77%

**Q.** And the melting point?
**A.** 213 to 216 °C

**Q.** With COc1cc(OCC(CO)CO)c(/C=C/C(=O)c2ccc(S(N)(=O)=O)cc2)cc1-c1cccs1 [Example 86, 4-{3E-[2-(3-Hydroxy-2-hydroxymethyl-propoxy)-4-methoxy-5-thiophen-2-yl-phenyl]-acryloyl}-benzenesulfonamide] as the compound, how does the IC50 [1] read?
**A.** < 5000 nM

**Q.** What about the “% Inhibition” value [2] of the same compound?
**A.** 48%

**Q.** What about the melting point of the same compound?
**A.** 123 to 124 °C

**Q.** Which IC50 [1] does the source give for COc1cc(OCCN2CCOCC2)c(/C=C/C(=O)c2ccc(C(=O)O)cc2)cc1-c1cccs1.Cl [Example 60, 4-{3E-[4-Methoxy-2-(2-morpholin-4-yl-ethoxy)-5-thiophen-2-yl-phenyl]-acryloyl}-benzoic acid, hydrochloride] here?
**A.** < 1000 nM

**Q.** And the “% Inhibition” value [2]?
**A.** 36%

**Q.** And the “% Inhibition” value ([3]; 75 mg/kg/day, dl–14)?
**A.** 62* %

**Q.** What about the melting point of the same compound?
**A.** 255 °C (dec.)
